According to the supplement of paper PMC10627819:

Key:
Test in all cases: fitness (endpoint OD595 vs no drug) (fraction); higher = more growth
B. subtilis 168 = tested on: B. subtilis 168
Summary of the method: (§1)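 With the first reading as background, OD595 was measured every 30 min for 14 h in 384-well plates kept at 37 °C and inoculated at OD595 0.01. TSB, LB Lennox or CY was the medium. Fitness is the optical density at the transition into stationary phase divided by the robust mean of no-drug control wells, with a cap of 1.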

S. aureus Newman = tested on: S. aureus Newman
Summary of the method: as §1

S. pneumoniae D39V = tested on: S. pneumoniae D39V
Summary of the method: as §1
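Also: OD595 on entry to stationary phase over no-drug wells; at most 1.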

For `O=C(O)c1cn(C2CC2)c2cc(N3CCNCC3)c(F)cc2c1=O` [Ciprofloxacin] + O=C(O)[C@H]1/C(=C/CO)O[C@@H]2CC(=O)N21 [Clavulanic acid], the fitness (B. subtilis 168; first compound 0.0098 µg/mL, partner 1.5 µg/mL) was 0.912, the fitness (B. subtilis 168; first compound 0.0098 µg/mL, partner 3 µg/mL) was 0.85 and the fitness (B. subtilis 168; first compound 0.0098 µg/mL, partner 6 µg/mL) was 0.717. The fitness (B. subtilis 168; first compound 0.0195 µg/mL, partner 1.5 µg/mL) was 0.758, the fitness (B. subtilis 168; first compound 0.0195 µg/mL, partner 3 µg/mL) was 0.643 and the fitness (B. subtilis 168; first compound 0.039 µg/mL, partner 1.5 µg/mL) was 0.151. It also gave a fitness (B. subtilis 168; first compound 0.039 µg/mL, partner 3 µg/mL) of 0.0402, a fitness (B. subtilis 168; first compound 0.039 µg/mL, partner 6 µg/mL) of 0.0214 and a fitness (S. aureus Newman; first compound 0.078 µg/mL, partner 0.03125 µg/mL, one replicate) of 0.709. The fitness (S. aureus Newman; first compound 0.078 µg/mL, partner 0.0625 µg/mL, one replicate) was 0.695, the fitness (S. aureus Newman; first compound 0.078 µg/mL, partner 0.125 µg/mL, one replicate) was 0.699 and the fitness (S. aureus Newman; first compound 0.156 µg/mL, partner 0.03125 µg/mL, one replicate) was 0.283. The fitness (S. aureus Newman; first compound 0.156 µg/mL, partner 0.0625 µg/mL, one replicate) was 0.216, the fitness (S. aureus Newman; first compound 0.156 µg/mL, partner 0.125 µg/mL, one replicate) was 0.211 and the fitness (S. aureus Newman; first compound 0.312 µg/mL, partner 0.03125 µg/mL, one replicate) was 0.143. The fitness (S. aureus Newman; first compound 0.312 µg/mL, partner 0.0625 µg/mL, one replicate) was 0.0875, the fitness (S. aureus Newman; first compound 0.312 µg/mL, partner 0.125 µg/mL, one replicate) was 0.116 and the fitness (S. pneumoniae D39V; first compound 0.125 µg/mL, partner 0.5 µg/mL) was 0.957. It also gave a fitness (S. pneumoniae D39V; first compound 0.125 µg/mL, partner 1 µg/mL) of 0.913, a fitness (S. pneumoniae D39V; first compound 0.125 µg/mL, partner 2 µg/mL) of 0.796 and a fitness (S. pneumoniae D39V; first compound 0.25 µg/mL, partner 0.5 µg/mL) of 0.806. For the same compound, the fitness (S. pneumoniae D39V; first compound 0.25 µg/mL, partner 1 µg/mL) was 0.788.
Work on `CC1(C)S[C@@H]2[C@H](NC(=O)Cc3ccccc3)C(=O)N2[C@H]1C(=O)O` [Penicillin G] + CN[C@H](CC(C)C)C(=O)N[C@H]1C(=O)N[C@@H](CC(N)=O)C(=O)N[C@H]2C(=O)N[C@H]3C(=O)N[C@H](C(=O)N[C@H](C(=O)O)c4cc(O)cc(O)c4-c4cc3ccc4O)[C@H](O)c3ccc(c(Cl)c3)Oc3cc2cc(c3O[C@@H]2O[C@H](CO)[C@@H](O)[C@H](O)[C@H]2O[C@H]2C[C@](C)(N)[C@H](O)[C@H](C)O2)Oc2ccc(cc2Cl)[C@H]1O [Vancomycin] yielded a fitness (S. aureus Newman; first compound 0.0195 µg/mL, partner 0.1875 µg/mL) of 0.895, a fitness (S. aureus Newman; first compound 0.0195 µg/mL, partner 0.375 µg/mL) of 0.918 and a fitness (S. aureus Newman; first compound 0.0195 µg/mL, partner 0.75 µg/mL) of 0.884. The fitness (S. aureus Newman; first compound 0.039 µg/mL, partner 0.1875 µg/mL) was 0.885, the fitness (S. aureus Newman; first compound 0.078 µg/mL, partner 0.1875 µg/mL) was 0.907 and the fitness (S. aureus Newman; first compound 0.078 µg/mL, partner 0.375 µg/mL) was 0.926. It also gave a fitness (S. aureus Newman; first compound 0.078 µg/mL, partner 0.75 µg/mL) of 0.88.
In the case of `O=C(O)c1cn(C2CC2)c2cc(N3CCNCC3)c(F)cc2c1=O` [Ciprofloxacin] + N[C@@H]1CONC1=O [Cycloserine D], the fitness (B. subtilis 168; first compound 0.0098 µg/mL, partner 0.125 µg/mL) is reported as 0.891, the fitness (B. subtilis 168; first compound 0.0098 µg/mL, partner 0.25 µg/mL) is reported as 0.85 and the fitness (B. subtilis 168; first compound 0.0098 µg/mL, partner 0.5 µg/mL) is reported as 0.901. It also gave a fitness (B. subtilis 168; first compound 0.0195 µg/mL, partner 0.125 µg/mL) of 0.684, a fitness (B. subtilis 168; first compound 0.0195 µg/mL, partner 0.25 µg/mL) of 0.653 and a fitness (B. subtilis 168; first compound 0.0195 µg/mL, partner 0.5 µg/mL) of 0.679. For the same compound, the fitness (B. subtilis 168; first compound 0.039 µg/mL, partner 0.125 µg/mL) was 0.144, the fitness (B. subtilis 168; first compound 0.039 µg/mL, partner 0.25 µg/mL) was 0.0682 and the fitness (B. subtilis 168; first compound 0.039 µg/mL, partner 0.5 µg/mL) was 0.12. It also gave a fitness (S. aureus Newman; first compound 0.0375 µg/mL, partner 0.375 µg/mL) of 0.7, a fitness (S. aureus Newman; first compound 0.0375 µg/mL, partner 0.75 µg/mL) of 0.682 and a fitness (S. aureus Newman; first compound 0.0375 µg/mL, partner 1.5 µg/mL) of 0.689. The fitness (S. aureus Newman; first compound 0.15 µg/mL, partner 0.375 µg/mL) was 0.0749, the fitness (S. aureus Newman; first compound 0.15 µg/mL, partner 0.75 µg/mL) was 0.0416 and the fitness (S. aureus Newman; first compound 0.15 µg/mL, partner 1.5 µg/mL) was 0.047.
`O=C(O)c1cn(C2CC2)c2cc(N3CCNCC3)c(F)cc2c1=O` [Ciprofloxacin] + CC1(C)S[C@@H]2[C@H](NC(=O)Cc3ccccc3)C(=O)N2[C@H]1C(=O)O [Penicillin G] showed a fitness (S. aureus Newman; first compound 0.0375 µg/mL, partner 0.0195 µg/mL) of 0.66, a fitness (S. aureus Newman; first compound 0.0375 µg/mL, partner 0.039 µg/mL) of 0.679 and a fitness (S. aureus Newman; first compound 0.0375 µg/mL, partner 0.078 µg/mL) of 0.688. The fitness (S. aureus Newman; first compound 0.075 µg/mL, partner 0.0195 µg/mL) was 0.582, the fitness (S. aureus Newman; first compound 0.075 µg/mL, partner 0.039 µg/mL) was 0.593 and the fitness (S. aureus Newman; first compound 0.075 µg/mL, partner 0.078 µg/mL) was 0.593. For the same compound, the fitness (S. aureus Newman; first compound 0.15 µg/mL, partner 0.0195 µg/mL) was 0.0269, the fitness (S. aureus Newman; first compound 0.15 µg/mL, partner 0.039 µg/mL) was 0.0263 and the fitness (S. aureus Newman; first compound 0.15 µg/mL, partner 0.078 µg/mL) was 0.024.
Compound `CC1(C)S[C@@H]2[C@H](NC(=O)Cc3ccccc3)C(=O)N2[C@H]1C(=O)O` [Penicillin G] + CN1C2=CC=CC=C2N=C3C1=CC=CC3=O [Pyocyanin] has a fitness (S. aureus Newman; first compound 0.0195 µg/mL, partner 1.25 µg/mL) of 0.807, a fitness (S. aureus Newman; first compound 0.0195 µg/mL, partner 2.5 µg/mL) of 0.783 and a fitness (S. aureus Newman; first compound 0.0195 µg/mL, partner 5 µg/mL) of 0.434. It also gave a fitness (S. aureus Newman; first compound 0.039 µg/mL, partner 1.25 µg/mL) of 0.831, a fitness (S. aureus Newman; first compound 0.039 µg/mL, partner 2.5 µg/mL) of 0.744 and a fitness (S. aureus Newman; first compound 0.039 µg/mL, partner 5 µg/mL) of 0.334. For the same compound, the fitness (S. aureus Newman; first compound 0.078 µg/mL, partner 1.25 µg/mL) was 0.801, the fitness (S. aureus Newman; first compound 0.078 µg/mL, partner 2.5 µg/mL) was 0.707 and the fitness (S. aureus Newman; first compound 0.078 µg/mL, partner 5 µg/mL) was 0.302.
